Results as given in patent US20250333397A1 (REMIX THERAPEUTICS INC., priority 2021, published 2025).
pIC50: −log10 of the molar value. Like-named read-outs stand apart in the source and are kept apart here.

Tests used:
Format in all cases: cell-based, human
[1] = system: Target C mRNA; assay: RT-qPCR splicing assay panel, Target C canonical junction (CJ) mRNA; conditions: Homo sapiens
Description: (§1) Compounds described herein were used to modulate RNA transcript abundance in cells. The expression of a target mRNA was measured by detecting the formation of an exon-exon junction in the canonical transcript (CJ). A compound mediated exon-inclusion event was detected by observing an increase in formation of a new junction with an alternative exon (AJ). Real-time qPCR assays were used to detect these splicing switches and interrogate the potency of various compounds towards different target genes. A high-throughput real time quantitative PCR (RT-qPCR) assay was developed to measure these two isoforms of the mRNA (CJ and AJ) for exemplary genes, such as HTT, SMN2, and MYB, together with a control housekeeping gene, GAPDH or GUSB or PPIA, used for normalization. Briefly, the A673 or K562 cell line was treated with various compounds described herein (e.g., compounds of Formula (I), (II), (III), (IV)). After treatment, the levels of the HTT, MYB, or SMN2 mRNA targets were determined from each sample of cell lysate by cDNA synthesis followed by qPCR.
(§2) The A673 cell line was cultured in DMEM with 10% FBS. Cells were diluted with full growth media and plated in a 96-well plate (15,000 cells in 100ul media per well). The plate was incubated at 37° C. with 5% CO2 for 24 hours to allow cells to adhere. An 11-point 3-fold serial dilution of the compounds was made in DMSO then diluted in media in an intermediate plate. Compounds were transferred from the intermediate plate to the cell plate with the top dose at a final concentration of 10 uM in the well. Final DMSO concentration was kept at or below 0.25%. The cell plate was returned to the incubator at 37° C. with 5% CO2 for an additional 24 hours.
(§3) The K562 cell line was cultured in IMDM with 10% FBS. For K562, cells were diluted with full growth media and plated in either a 96-well plate (50,000 cells in 50 uL media per well) or a 384-well plate (8,000-40,000 cells in 45 uL media per well). An 11-point 3-fold serial dilution of the compounds were made in DMSO then diluted in media in an intermediate plate.
(§4) Compound was transferred from the intermediate plate to the cell plate with the top dose at a final concentration of 10 uM in the well. Final DMSO concentration was kept at or below 0.25%.
(§5) Final volume was 100 uL for 96-well plate and 50 uL for 384-well plate. The cell plate was then placed in an incubator at 37° C. with 5% CO2 for 24 hours.
(§6) The cells were then gently washed with 50 uL-100 uL cold PBS before proceeding to addition of lysis buffer. 30 uL-50 μL of room temperature lysis buffer with DNAse I (and optionally RNAsin) was added to each well. Cells were shaken/mixed thoroughly at room temperature for 5-10 minutes for lysis to take place and then 3 uL-5 μL of room temperature stop solution was added and wells were shaken/mixed again. After 2-5 minutes, the cell lysate plate was transferred to ice for RT-qPCR reaction setup. The lysates could also be frozen at −80° C. for later use.
(§7) In some cases, a direct lysis buffer was used. An appropriate volume of 3× lysis buffer (10 mM Tris, 150 mM NaCl, 1.5%-2.5% Igepal and 0.1-1 U/uL RNAsin, pH 7.4) was directly added to either K562 or A673 cells in media and mixed by pipetting 3 times. The plates were then incubated at room temperature with shaking/rocking for 20-50 minutes to allow for lysis to take place. After this time, the cell lysate plate was transferred to ice to set up for the RT-qPCR reactions. The lysates could also be frozen at −80° C. for later use.
(§8) To set up 10 uL RT-qPCR reactions, cell lysates were transferred to 384-well qPCR plates containing the master mix according to the table below. The plates were sealed, gently vortexed, and spun down before the run. The volumes were adjusted accordingly in some instances where the reaction was carried in 20 μL. The table below summarizes the components of the RT-qPCR reactions: […]

[2] = system: SMN2 mRNA; assay: RT-qPCR splicing assay panel, SMN2 canonical junction (CJ) mRNA; conditions: Homo sapiens
Description: as §1, §2, §3, §4, §5, §6, §7, §8

[3] = system: MYB mRNA; assay: RT-qPCR splicing assay, MYB canonical (CJ) and alternative (AJ) junction mRNA; conditions: Homo sapiens; for AC50: read-out: MYB AJ (AC50, increase in AJ mRNA)
Description: as §1, §2, §3, §4, §5, §6, §7, §8

[4] = system: HTT mRNA; assay: RT-qPCR splicing assay, HTT canonical (CJ) and alternative (AJ) junction mRNA; conditions: Homo sapiens; for AC50: read-out: HTT AJ (AC50, increase in AJ mRNA)
Description: as §1, §2, §3, §4, §5, §6, §7, §8

[5] = canonical junction (CJ) mRNA, RT-qPCR panel, Table 4A, read-out: Target C, decrease in CJ mRNA levels, IC50
[6] = canonical junction (CJ) mRNA, RT-qPCR panel, Table 4A, read-out: SMN2, decrease in CJ mRNA levels, IC50
[7] = 24 h, Table 3A, A673 or K562 cells, 24 h treatment
[8] = 24 h, Table 3A, A673 or K562 cells, 24 h treatment, read-out: MYB CJ (IC50, decrease in CJ mRNA)
[9] = canonical junction (CJ) mRNA, RT-qPCR panel, Table 4A, read-out: MYB, decrease in CJ mRNA levels, IC50
[10] = 24 h, Table 3A, A673 or K562 cells, 24 h treatment, read-out: HTT CJ (IC50, decrease in CJ mRNA)
[11] = canonical junction (CJ) mRNA, RT-qPCR panel, Table 4A, read-out: HTT, decrease in CJ mRNA levels, IC50
[12] = Table 4B, gene panel, read-out: Target C (IC50, decrease in CJ mRNA levels)
[13] = Table 4B, gene panel, read-out: SMN2 (IC50, decrease in CJ mRNA levels)
[14] = 24 h, Table 3B, A673 or K562 cells, 24 h treatment
[15] = 24 h, Table 3B, A673 or K562 cells, 24 h treatment, read-out: MYB CJ (IC50, decrease in CJ mRNA)
[16] = Table 4B, gene panel, read-out: MYB (IC50, decrease in CJ mRNA levels)
[17] = 24 h, Table 3B, A673 or K562 cells, 24 h treatment, read-out: HTT CJ (IC50, decrease in CJ mRNA)
[18] = Table 4B, gene panel, read-out: HTT (IC50, decrease in CJ mRNA levels)

Structure (SMILES) | pIC50 [1, 5] | pIC50 [2, 6] | AC50 [3, 7] [nM] | pIC50 [3, 8] | pIC50 [3, 9] | AC50 [4, 7] [nM] | pIC50 [4, 10] | pIC50 [4, 11] | pIC50 [1, 12] | pIC50 [2, 13] | AC50 [3, 14] [nM] | pIC50 [3, 15] | pIC50 [3, 16] | AC50 [4, 14] [nM] | pIC50 [4, 17] | pIC50 [4, 18]
Cc1nc(F)c(-c2cc(O)c(-c3ccc(N4CCC(NC5CCC5)C4)nn3)cc2F)s1 (stereo not drawn) [Compound 378] | 5.00 to 6.00 | 6.00 to 7.00 | 1000 to 10000 | 5.00 to 6.00 | 5.00 to 6.00 | 100 to 1000 | 6.00 to 7.00 | 6.00 to 7.00 |  |  |  |  |  |  |  | 
Cc1ccc2cc(-c3ccc(N4CCC(NC(C)(C)C)C4)nn3)c(O)cc2n1 (stereo not drawn) [Compound 817] |  |  |  |  |  |  |  |  | < 5.00 | 5.00 to 6.00 | > 10000 | < 5.00 | < 5.00 | > 10000 | < 5.00 | < 5.00
COc1cc(-c2cc(O)c(-c3ccc(N4CC[C@@H](N[C@H]5C[C@@H](F)C5)C4)nn3)cc2F)cnn1 (racemic) [Compound 161, 4-fluoro-5-(6-methoxypyridazin-4-yl)-2-[6-(3-{[(1s,3s)-3-fluorocyclobutyl]amino}pyrrolidin-1-yl)pyridazin-3-yl]phenol] | 6.00 to 7.00 | > 7.00 | 100 to 1000 | 6.00 to 7.00 | 6.00 to 7.00 | 100 to 1000 | 6.00 to 7.00 | 6.00 to 7.00 |  |  |  |  |  |  |  | 
Oc1cc(-c2cn[nH]c2)ccc1-c1ccc(N2CCC(NC3(C(F)(F)F)CC3)C2)nn1 (stereo not drawn) [Compound 110, 5-(1H-pyrazol-4-yl)-2-[6-(3-{[1-(trifluoromethyl)cyclopropyl]amino}pyrrolidin-1-yl)pyridazin-3-yl]phenol] | < 5.00 | < 5.00 | > 10000 | < 5.00 | < 5.00 | > 10000 | < 5.00 | < 5.00 |  |  |  |  |  |  |  | 
Oc1cc(-c2cn[nH]c2)ccc1-c1ccc(N2CC[C@H](NC3CC3)C2)nn1 [Compound 104, 2-{6-[(3S)-3-(cyclopropylamino)pyrrolidin-1-yl]pyridazin-3-yl}-5-(1H-pyrazol-4-yl)phenol; ethane] | 6.00 to 7.00 | > 7.00 | 100 to 1000 | 6.00 to 7.00 | 6.00 to 7.00 | < 100 | > 7.00 | > 7.00 |  |  |  |  |  |  |  | 
COc1cc(-c2ccc(-c3ccc(N4CCC(N[C@H]5C[C@H](OC)C5)C4)nn3)c(O)c2)cnn1 (stereo partly drawn) [Compound 448] | 6.00 to 7.00 | > 7.00 | 100 to 1000 | 6.00 to 7.00 | 6.00 to 7.00 | 100 to 1000 | 6.00 to 7.00 | 6.00 to 7.00 |  |  |  |  |  |  |  | 
COCCc1cc(-c2ccc(-c3ccc(N4CCC(NC5CCC5)C4)nn3)c(O)c2)cnn1 (stereo not drawn) [Compound 430] | < 5.00 | < 5.00 | > 10000 | < 5.00 | < 5.00 | > 10000 | < 5.00 | < 5.00 |  |  |  |  |  |  |  | 
Cc1nc2cc(O)c(-c3ccc(N4CCC(NC(C)(C)C(C)(C)C)C4)nn3)cc2o1 (stereo not drawn) [Compound 835] |  |  |  |  |  |  |  |  | 6.00 to 7.00 | 6.00 to 7.00 | 100 to 1000 | 6.00 to 7.00 | 6.00 to 7.00 | 100 to 1000 | 6.00 to 7.00 | 6.00 to 7.00
COc1cc(-c2cc(O)c(-c3ccc(N4CC[C@H](NC(C)(C)C)C4)nn3)cc2F)ncn1 [Compound 397] | 6.00 to 7.00 | 6.00 to 7.00 | 1000 to 10000 | 6.00 to 7.00 | 6.00 to 7.00 | 100 to 1000 | 6.00 to 7.00 | 6.00 to 7.00 |  |  |  |  |  |  |  | 
Oc1cc(-c2cn[nH]c2)c(F)cc1-c1ccc(N2CC[C@@H](NC3CC3)C2)nn1 [Compound 106, 2-{6-[(3R)-3-(cyclopropylamino)pyrrolidin-1-yl]pyridazin-3-yl}-4-fluoro-5-(1H-pyrazol-4-yl)phenol] | 6.00 to 7.00 | > 7.00 | 100 to 1000 | 6.00 to 7.00 | 6.00 to 7.00 | < 100 | > 7.00 | > 7.00 |  |  |  |  |  |  |  | 
Cc1ncc(-c2cc(O)c(-c3ccc(N4CCC(CNC(C)(C)C)C4)nn3)cc2F)s1 (stereo not drawn) [Compound 333] | < 5.00 | 5.00 to 6.00 | > 10000 | < 5.00 | < 5.00 | > 10000 | 5.00 to 6.00 | 5.00 to 6.00 |  |  |  |  |  |  |  | 
Cc1ncc(-c2cc(O)c(-c3ccc(N4CCC(NC5CCCC5)C4)nn3)cc2F)s1 (stereo not drawn) [Compound 391] | > 7.00 | > 7.00 | 100 to 1000 | > 7.00 | > 7.00 | < 100 | > 7.00 | > 7.00 |  |  |  |  |  |  |  | 
